A word on the CC50: it is the concentration that lowers cell viability or growth by half. The low end stands for harm at low concentration, the high end for better tolerance by the cells.

Drawing on PMC9138505, “Small Molecule 20S Proteasome Enhancer Regulates MYC Protein Stability and Exhibits Antitumor Activity in Multiple Myeloma” (Biomedicines, 2022), this text covers CC50 and average tumor volume for 1 compound.

The test system of assay [1] is primary human MM cells of newly diagnosed patient. Nature of the assay: Primary cell viability, CellTiter-Glo, 72 h. On the technique in general: ATP-based viability assays read luminescence as a measure of living cells.
Text: (§1) White blood cells (WBCs) were separated from red blood cells by the Ficoll density gradient. Multiple myeloma cells were then isolated from WBCs using human CD138 affinity magnetic beads (Miltenyi Biotec; cat#130-093-062; Gaithersburg, MD, USA) following the manufacturer’s protocol. Cells were cryopreserved in 10% DMSO in FBS. Revived cells were maintained in an RPMI medium with 10% FBS for 10 days prior to treatment. […] Cells were equilibrated to RT and CellTiter-Glo (Promega; Madison, WI, USA) solution (100 μL) was added and incubated with shaking for 10 min at RT. The assay plate was then allowed to equilibrate for 5 min at RT and luminescent readings were taken on a SpectraMax® M5. Data are presented as a percentage of the vehicle control for each experimental condition, after background subtraction. Error bars represent SD for triplicate wells.
For assay [2], the system named is RPMI-8226 subcutaneous xenograft. Kind of assay: RPMI-8226 xenograft tumor model. The conditions noted are these: after 42 days; TCH-165 100 mg/kg bid oral; bortezomib 0.375 reduced to 0.09 mg/kg i.v. 3X per week.
The test system of assay [3] is primary cells from a BTZ refractory MM patient. Nature of the assay: Primary cell viability, CellTiter-Glo, 72 h. The conditions noted are these: Homo sapiens.
Text: as §1

`CC(C)C[C@H](NC(=O)[C@H](Cc1ccccc1)NC(=O)c1cnccn1)B(O)O` [bortezomib, reference compound]: the CC50 in assay [1] was 4 nM; in assay [3], over 1000 nM. In assay [2], the average tumor volume was 771.41 (±129.35) mm^3.
